Experiments:
Mus musculus [1] = assay: Toxicity in mouse allografted with mouse L1210 cells assessed as survival rate at 500 mg/kg, ip administered on day 1 measured on day 30 relative to control; format: organism-based; design: dose 500 mg/kg, route intraperitoneal; settings: in vivo
L1210 [2] = assay: Antitumor activity against mouse L1210 cells allografted in mouse assessed as increase in survival rate at 500 mg/kg, ip administered on day 1 measured on day 30 relative to control; format: functional; settings: route intraperitoneal
L1210 [3] = assay: Antitumor activity against mouse L1210 cells allografted in mouse assessed as increase in survival rate at 62.5 mg/kg, ip administered on day 1 measured on day 30 relative to control; format: functional; settings: route intraperitoneal
[4] = Hydrolytic stability in deuteriochloroform; format: physicochemical
[5] = Hydrolytic stability in CDCl3 assessed as formation of 3-ammonio-2-bromopropyl phenylphosphonate measured within 2 hrs by NMR analysis; format: physicochemical
[6] = Hydrolytic stability in D2O/Me2SO-d6 assessed as formation of 3-ammonio-2-bromopropyl phenylphosphonate at 37 degC after 24 hrs by NMR analysis; format: physicochemical
L1210 [7] = assay: Antitumor activity against mouse L1210 cells allografted in mouse assessed as increase in survival rate at 150 mg/kg, ip administered on day 1 measured on day 30 relative to control; format: functional; settings: route intraperitoneal
Mus musculus [8] = assay: Toxicity in mouse allografted with mouse L1210 cells assessed as survival rate at 150 mg/kg, ip administered on day 1 measured on day 30 relative to control; format: organism-based; design: dose 150 mg/kg, route intraperitoneal; settings: in vivo
W256 [9] = assay: Cytotoxicity against rat Walker 256 cells assessed as growth inhibition in absence of microsomal activation; settings: W256, read-out: ID50
[10] = Toxicity in mouse allografted with mouse ADJ/PC6 cells
Mus musculus [11] = assay: Toxicity in mouse allografted with mouse L1210 cells assessed as survival rate at 250 mg/kg, ip administered on day 1 measured on day 30 relative to control; format: organism-based; design: dose 250 mg/kg, route intraperitoneal; settings: in vivo
[12] = Therapeutic index, ratio of LD50 for mouse allografted with mouse ADJ/PC6 cells to ED90 for mouse ADJ/PC6 cells allografted in mouse
W256 [13] = assay: Cytotoxicity against rat Walker 256 cells assessed as growth inhibition in presence of microsomal activation; settings: W256, read-out: ID50
ADJ/PC6 = assay: Antitumor activity against mouse ADJ/PC6 cells allografted in mouse
Mus musculus [14] = assay: Toxicity in mouse allografted with mouse L1210 cells assessed as survival rate at 62.5 mg/kg, ip administered on day 1 measured on day 30 relative to control; format: organism-based; design: dose 62.5 mg/kg, route intraperitoneal; settings: in vivo

O=P12OCCCN1CCN2CCCl (stereo not drawn)
Activity (Mus musculus [1]): Non-toxic | T/C (L1210 [2]): 105%

O=P1(N2CC2)OCCCN1CCCl (stereo not drawn)
T/C (L1210 [3]): 110%

O=P1(c2ccccc2)NCC(Br)CO1 (stereo not drawn)
Stability [4]: Stable | Stability [5]: Unstable | Stability [6]: Unstable

O=P1(Oc2ccccc2)NCC(Br)CO1 (stereo not drawn)
Stability [6]: Stable

[O-][P@@+]1(Oc2ccccc2)NC[C@H](Br)CO1 (racemic)
T/C (L1210 [7]): 113% | Activity (Mus musculus [8]): Non-toxic

O=P1(N(CCCl)CCCl)NCCCO1 (racemic) [CYCLOPHOSPHAMIDE ANHYDROUS]
IC50 (W256 [9]): > 500 µg/mL | LD50 [10]: 450 mg/kg | Activity (Mus musculus [11]): Non-toxic | selectivity ratio [12]: 95 | IC50 (W256 [13]): 0.5 µg/mL | ED90 (ADJ/PC6): 4.75 mg/kg

[O-][P@@+]1(c2ccccc2)NC[C@@H](Br)CO1 (single isomer, unassigned; fast eluting)
Activity (Mus musculus [11]): Non-toxic

[O-][P@@+]1(Oc2ccccc2)NC[C@@H](Br)CO1 (single isomer, unassigned; fast eluting)
Activity (Mus musculus [14]): Non-toxic | T/C (L1210 [3]): 107%
